Test results: PubChem BioAssay (NCI)
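A five-concentration, 48-hour dose response in 96-well plates underlies each endpoint, interpolated linearly between surrounding concentrations. At the GI50, growth is halved. At the TGI there is no net growth.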

Experiments:
Experiment in all cases: NCI anticancer screen, dose series, 48 h
UACC-62 melanoma = system: UACC-62 melanoma
DU-145 prostate = system: DU-145 prostate
SF-268 CNS = system: SF-268 CNS
UACC-257 melanoma = system: UACC-257 melanoma
SW-620 colon = system: SW-620 colon
M14 melanoma = system: M14 melanoma
SNB-75 CNS = system: SNB-75 CNS
MDA-MB-231 breast = system: MDA-MB-231 breast
SK-MEL-5 melanoma = system: SK-MEL-5 melanoma
IGROV1 ovarian = system: IGROV1 ovarian

Cc1ccc(NC(=S)NNC(=S)Nc2ccc(C)cc2)cc1
GI50 (UACC-62 melanoma): 5170 nM
TGI (UACC-62 melanoma): > 100 µM
GI50 (DU-145 prostate): 6890 nM
TGI (DU-145 prostate): 59.2 µM
GI50 (SF-268 CNS): 6.05 µM
TGI (SF-268 CNS): > 100 µM
GI50 (UACC-257 melanoma): 7130 nM
TGI (UACC-257 melanoma): > 100 µM
GI50 (SW-620 colon): 3810 nM
TGI (SW-620 colon): > 100 µM
GI50 (M14 melanoma): 3540 nM
TGI (M14 melanoma): > 100 µM
GI50 (SNB-75 CNS): 3390 nM
TGI (SNB-75 CNS): 67.3 µM
GI50 (MDA-MB-231 breast): 65.4 µM
TGI (MDA-MB-231 breast): > 100 µM
GI50 (SK-MEL-5 melanoma): 4360 nM
TGI (SK-MEL-5 melanoma): > 100 µM
GI50 (IGROV1 ovarian): 6.24 µM
TGI (IGROV1 ovarian): > 100 µM

CC(C)C[C@H](NC(=O)[C@@H](Cc1ccccc1)n1ccc(Nc2ccccc2)cc1=O)B(O)O
GI50 (UACC-62 melanoma): 333 nM
TGI (UACC-62 melanoma): 1.41 µM
GI50 (DU-145 prostate): 783 nM
TGI (DU-145 prostate): 16.7 µM
GI50 (SF-268 CNS): 0.385 µM
TGI (SF-268 CNS): 2.31 µM
GI50 (UACC-257 melanoma): 404 nM
TGI (UACC-257 melanoma): 2.48 µM
GI50 (SW-620 colon): 320 nM
TGI (SW-620 colon): 14.4 µM
GI50 (M14 melanoma): 278 nM
TGI (M14 melanoma): 1.91 µM
GI50 (SNB-75 CNS): 300 nM
TGI (SNB-75 CNS): 1.83 µM
GI50 (MDA-MB-231 breast): 0.595 µM
TGI (MDA-MB-231 breast): 4.37 µM
GI50 (SK-MEL-5 melanoma): 321 nM
TGI (SK-MEL-5 melanoma): 1.14 µM
GI50 (IGROV1 ovarian): 1.33 µM
TGI (IGROV1 ovarian): 27.9 µM

COc1ccc(OC)c(C2=C(c3cn(C)c4ccccc34)C(=O)NC2=O)c1
GI50 (UACC-62 melanoma): > 25000 nM
TGI (UACC-62 melanoma): > 25 µM
GI50 (DU-145 prostate): > 25000 nM
TGI (DU-145 prostate): > 25 µM
GI50 (SF-268 CNS): > 25 µM
TGI (SF-268 CNS): > 25 µM
GI50 (UACC-257 melanoma): > 25000 nM
TGI (UACC-257 melanoma): > 25 µM
GI50 (SW-620 colon): 20800 nM
TGI (SW-620 colon): > 25 µM
GI50 (M14 melanoma): > 25000 nM
TGI (M14 melanoma): > 25 µM
GI50 (SNB-75 CNS): > 25000 nM
TGI (SNB-75 CNS): > 25 µM
GI50 (MDA-MB-231 breast): > 25 µM
TGI (MDA-MB-231 breast): > 25 µM
GI50 (SK-MEL-5 melanoma): > 25000 nM
TGI (SK-MEL-5 melanoma): > 25 µM
GI50 (IGROV1 ovarian): > 25 µM
TGI (IGROV1 ovarian): > 25 µM

COc1ccc2nc3cc([N+](=O)[O-])ccc3c(NCCO)c2c1
GI50 (UACC-62 melanoma): 1930 nM
TGI (UACC-62 melanoma): 5.23 µM
GI50 (DU-145 prostate): 3620 nM
GI50 (SF-268 CNS): 1.15 µM
TGI (SF-268 CNS): 11.5 µM
GI50 (UACC-257 melanoma): 2610 nM
TGI (UACC-257 melanoma): 7.68 µM
GI50 (SW-620 colon): 4080 nM
TGI (SW-620 colon): 25.7 µM
GI50 (M14 melanoma): 1890 nM
TGI (M14 melanoma): 4.28 µM
GI50 (SNB-75 CNS): 2920 nM
TGI (SNB-75 CNS): 16.1 µM
GI50 (MDA-MB-231 breast): 4.4 µM
TGI (MDA-MB-231 breast): 28.1 µM
GI50 (SK-MEL-5 melanoma): 1610 nM
TGI (SK-MEL-5 melanoma): 3.26 µM
GI50 (IGROV1 ovarian): 3.17 µM
TGI (IGROV1 ovarian): 13.6 µM

CCCCCCCCCCCCCCCC(=O)NS(=O)(=O)OC[C@H]1O[C@@H](n2cnc3c(N)ncnc32)[C@H](O)[C@@H]1O
GI50 (UACC-62 melanoma): 215 nM
TGI (UACC-62 melanoma): 0.599 µM
GI50 (DU-145 prostate): < 46.2 nM
TGI (DU-145 prostate): 3.98 µM
GI50 (SF-268 CNS): < 0.0481 µM
TGI (SF-268 CNS): 1.28 µM
GI50 (UACC-257 melanoma): 333 nM
TGI (UACC-257 melanoma): 1.47 µM
GI50 (SW-620 colon): 41.2 nM
TGI (SW-620 colon): 10.1 µM
GI50 (M14 melanoma): 632 nM
TGI (M14 melanoma): 2.17 µM
GI50 (SNB-75 CNS): < 47.1 nM
TGI (SNB-75 CNS): 1.29 µM
GI50 (MDA-MB-231 breast): 0.381 µM
TGI (MDA-MB-231 breast): 1.71 µM
GI50 (SK-MEL-5 melanoma): 234 nM
TGI (SK-MEL-5 melanoma): 0.571 µM
GI50 (IGROV1 ovarian): 0.0371 µM
TGI (IGROV1 ovarian): 0.199 µM

Nc1nc2ccc(CNc3ccc(C(=O)NC(CC(=O)O)C(=O)O)cc3)cc2c(=O)[nH]1 (stereo not drawn)
GI50 (UACC-62 melanoma): 5890 nM
TGI (UACC-62 melanoma): > 100 µM
GI50 (DU-145 prostate): 1580 nM
TGI (DU-145 prostate): > 100 µM
GI50 (SF-268 CNS): 5 µM
TGI (SF-268 CNS): > 100 µM
GI50 (UACC-257 melanoma): > 100000 nM
TGI (UACC-257 melanoma): > 100 µM
GI50 (SW-620 colon): 525 nM
TGI (SW-620 colon): > 100 µM
TGI (M14 melanoma): > 100 µM
GI50 (SNB-75 CNS): > 100000 nM
TGI (SNB-75 CNS): > 100 µM
GI50 (MDA-MB-231 breast): > 100 µM
TGI (MDA-MB-231 breast): > 100 µM
GI50 (SK-MEL-5 melanoma): 5350 nM
TGI (SK-MEL-5 melanoma): > 100 µM
GI50 (IGROV1 ovarian): 3.32 µM
TGI (IGROV1 ovarian): > 100 µM
